Where two headings read alike, the source gives them in different places.
Experiments:
full length human DGKζ = full length human DGKζ (Homo sapiens (Human), UniProt Q13574); experiment: In vitro DGK inhibition assay, Method B (DGKζ LIPGLO, extruded liposomes); type: biochemical; conditions: liposome (LIPGLO) assay; read-out: DGKζ LIPGLO IC50
[1] = tested on: human venous whole blood, CD8 positive population (pERK); experiment: DGK human whole blood pERK assay; type: cell-based; conditions: for EC50: top concentration 20 μM
Procedure, shortened: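 Heparinized whole blood from healthy donors preincubated with compound 1 hour at 37° C. Stimulation used anti-CD3 at 1 μg/mL final plus cross-linking goat anti-mouse IgG for 15 minutes. Flow cytometry scored percentage pERK-positive cells among CD8-positive cells.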

DGKα = DGKα (Homo sapiens (Human), UniProt P23743); experiment: biochemical; type: biochemical; conditions: liposome (LIPGLO) assay; read-out: DGKα LIPGLO IC50
Chain of DGKα (P23743 whole entry, looked up): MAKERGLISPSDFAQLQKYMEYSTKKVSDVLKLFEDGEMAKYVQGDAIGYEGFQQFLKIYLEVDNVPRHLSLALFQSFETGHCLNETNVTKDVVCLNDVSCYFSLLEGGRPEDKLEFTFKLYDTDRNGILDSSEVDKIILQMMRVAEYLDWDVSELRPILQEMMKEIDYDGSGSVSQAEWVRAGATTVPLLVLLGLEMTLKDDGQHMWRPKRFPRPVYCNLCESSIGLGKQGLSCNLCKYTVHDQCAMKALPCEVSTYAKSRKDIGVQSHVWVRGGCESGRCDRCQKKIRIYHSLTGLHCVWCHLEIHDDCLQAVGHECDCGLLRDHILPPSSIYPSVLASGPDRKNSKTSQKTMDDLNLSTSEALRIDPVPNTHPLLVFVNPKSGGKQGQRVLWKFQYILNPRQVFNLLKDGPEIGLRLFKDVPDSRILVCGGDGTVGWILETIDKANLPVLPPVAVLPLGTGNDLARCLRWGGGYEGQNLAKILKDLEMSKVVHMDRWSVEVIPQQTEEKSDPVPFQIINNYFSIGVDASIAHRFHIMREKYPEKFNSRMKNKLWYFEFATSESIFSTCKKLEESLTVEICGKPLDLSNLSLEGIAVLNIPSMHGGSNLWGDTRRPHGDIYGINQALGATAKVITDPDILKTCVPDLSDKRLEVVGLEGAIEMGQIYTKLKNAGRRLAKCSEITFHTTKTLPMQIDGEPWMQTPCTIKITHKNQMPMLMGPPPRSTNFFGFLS

human DGKζ = human DGKζ (Homo sapiens (Human), UniProt Q13574); experiment: biochemical; type: biochemical; conditions: liposome (LIPGLO) assay; read-out: DGKζ LIPGLO IC50
Chain of human DGKζ (Q13574 whole entry, looked up): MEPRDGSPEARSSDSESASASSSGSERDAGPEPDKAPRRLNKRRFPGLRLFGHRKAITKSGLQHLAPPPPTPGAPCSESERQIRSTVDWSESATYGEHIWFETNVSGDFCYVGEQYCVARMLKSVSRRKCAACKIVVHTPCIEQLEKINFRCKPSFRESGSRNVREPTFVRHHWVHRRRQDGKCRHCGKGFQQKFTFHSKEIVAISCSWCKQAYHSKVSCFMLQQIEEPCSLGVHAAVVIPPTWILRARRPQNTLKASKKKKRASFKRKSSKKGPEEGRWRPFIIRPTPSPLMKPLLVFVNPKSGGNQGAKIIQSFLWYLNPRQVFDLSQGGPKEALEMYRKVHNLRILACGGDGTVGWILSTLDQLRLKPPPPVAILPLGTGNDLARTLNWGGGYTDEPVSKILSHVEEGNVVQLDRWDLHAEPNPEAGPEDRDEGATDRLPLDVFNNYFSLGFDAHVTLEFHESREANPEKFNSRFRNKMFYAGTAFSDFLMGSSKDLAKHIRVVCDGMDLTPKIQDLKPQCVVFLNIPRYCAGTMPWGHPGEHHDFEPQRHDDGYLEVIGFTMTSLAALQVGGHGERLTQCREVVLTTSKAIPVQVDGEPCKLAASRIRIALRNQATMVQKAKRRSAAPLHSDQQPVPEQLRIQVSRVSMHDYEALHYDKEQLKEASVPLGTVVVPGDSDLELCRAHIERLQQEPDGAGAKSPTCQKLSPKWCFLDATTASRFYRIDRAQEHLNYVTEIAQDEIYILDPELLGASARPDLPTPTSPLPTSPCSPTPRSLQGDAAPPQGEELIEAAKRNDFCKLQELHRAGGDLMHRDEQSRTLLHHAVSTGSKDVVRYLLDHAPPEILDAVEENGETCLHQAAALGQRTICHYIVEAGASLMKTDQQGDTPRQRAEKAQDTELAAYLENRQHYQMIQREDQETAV

naïve human CD8 T cells = experiment: CellTiter-Glo CD8 T cell proliferation assay; type: cell-based; conditions: Homo sapiens, read-out: CD8 GLO Normalized EC50
Experimental: Assay 4: CellTiter-Glo CD8 T Cell Proliferation Assay
Frozen naïve human CD8 T cells were thawed in RPMI+10% FBS, incubated for 2 h in 37° C., and counted. The 384-well tissue culture plate was coated overnight at 4° C. with 20 μl anti-human CD3 at 0.1 μg/mL in plain RPMI, which was removed off the plate before 20 k/40 μL CD8 T cells with 0.5 μg/ml soluble anti-human CD28 were added to each well. The compounds were echoed to the cell plate immediately after the cells were plated. After 72 h incubation at 37° C. incubator, 10 μL CellTiter-glo reagent (Promega catalog number G7570) was added to each well. The plate was vigorously shaken for 5 mins, incubated at room temperature for another 15 mins and read on Envision for CD8 T cell proliferation. In analysis, 0.1 μg/mL anti-CD3 and 0.5 μg/mL anti-CD28 stimulated CD8 T cell signal was background.

[2] = tested on: OT-1 CD8+ T cells with SIINFEKL-loaded MC38 tumor cells; experiment: Murine cytotoxic T lymphocyte assay (IFN-γ); type: cell-based, mouse; conditions: Mus musculus, MC-38; murine cytotoxic T lymphocyte, IFN-γ; read-out: msCTL INFg IC50
From the text: Assay 6: Murine Cytotoxic T Lymphocyte Assay
An antigen-specific cytolytic T-cell (CTL) assay was developed to evaluate functionally the ability of DGKα and DGKζ inhibitors to enhance effector T cell mediated tumor cell killing activity. CD8+ T-cells isolated from the OT-1 transgenic mouse recognize antigen presenting cells, MC38, that present the ovalbumin derived peptide […]. Recognition of the cognate antigen initiates the cytolytic activity of the OT-1 antigen-specific CD8+ T cells.
Functional CTL cells were generated as follows: OT-1 splenocytes from 8-12 week old mice were isolated and expanded in the presence of the […] peptide at 1 μg/mL and mIL2 at 10 U/mL. After three days, fresh media with […] was added. On day 5 of the expansion, the CD8+ T cells were isolated and ready for use. Activated CTL cells may be stored frozen for 6 months. Separately, one million MC38 tumor cells were pulsed with 1 μg/mL of […]-OVA peptide for 3 hours at 37° C. The cells were washed (3×) with fresh media to remove excess peptide. Finally, CTL cells that were pretreated with DGK inhibitors for 1 hour in a 96-well U bottom plate were combined with the antigen loaded MC38 tumor cells at a 1:10 ratio. The cells were then spun at 700 rpm for 5 min and placed in an incubator overnight at 37° C. After 24 hours, the supernatant was collected for analysis of IFN-γ cytokine levels by AlphaLisa purchased from Perkin Elmer.

[3] = tested on: Human venous whole blood (IFN-γ); experiment: Human whole blood IFN-γ assay; type: cell-based; conditions: Homo sapiens, 24 h, human whole blood, anti-CD3 plus anti-CD28, 24 hours; read-out: INFg Whole Blood Normalized Agonist EC50
Experimental: Assay 10: Human Whole Blood IFN-γ Assay
Human venous whole blood (22.5 μL per well), obtained from healthy donors, was pre-treated with compounds for one hour at 37° C. in a humidified 95% air/5% CO2 incubator. The blood was stimulated with 2.5 μL anti-human CD3 and anti-CD28 mAb at a final concentration of 1 μg/mL each for 24 hours at 37° C. IFN-γ in the supernatants was measured using AlphLISA kit (Cat #AL217).

Chain of full length human DGKζ (Q13574 whole entry, looked up): as above

Row | EC50 ([1]; Homo sapiens, CD8 positive, read-out: DGK HWB (human whole blood pERK), human whole blood, CD8 positive population, anti-CD3 stimulation) | SMILES | IC50 (full length human DGKζ) | EC50 ([1]; read-out: DGK HWB (human whole blood pERK), human whole blood, CD8 positive population, anti-CD3 stimulation) | EC50 ([1]; human whole blood, CD8 positive population, anti-CD3 stimulation, read-out: DGK HWB (human whole blood pERK)) | IC50 (DGKα) | IC50 (human DGKζ) | EC50 (naïve human CD8 T cells) | IC50 [2] | EC50 [3] | IC50 ([1]; human whole blood, CD8 positive population, read-out: DGK HWB pERK IC50)
1 | – | Cn1c(=O)cc(N2CC[C@@H](Oc3cccc(C(F)(F)F)c3)[C@H](OCC(F)(F)F)C2)c2nc(C#N)ccc21 [Example 394, 5-methyl-6-oxo-8-((3R,4R)-3-(2,2,2-trifluoroethoxy)-4-(3-(trifluoromethyl)phenoxy)piperidin-1-yl)-5,6-dihydro-1,5-naphthyridine-2-carbonitrile] | 51 µM | 6.2 µM | – | – | – | – | – | – | –
2 | – | CCO[C@H]1CN(c2cc(=O)n(C)c3ccc(C#N)nc23)CC[C@@H]1Oc1ccc(OC(C)C)cn1 (relative stereo) [Example 398, trans-8-(4-((5-Isopropoxypyridin-2-yl)oxy)-3-ethoxypiperidin-1-yl)-5-methyl-6-oxo-5,6-dihydro-1,5-naphthyridine-2-carbonitrile] | 1.2 µM | – | 2.8 µM | – | – | – | – | – | –
3 | – | CCO[C@H]1CN(c2nc(=O)n(C)c3ccc(C#N)nc23)CC[C@@H]1Oc1ccc(C(F)(F)F)cc1 [Example 405, 4-((3S,4S)-3-ethoxy-4-(4-(trifluoromethyl)phenoxy)piperidin-1-yl)-1-methyl-2-oxo-1,2-dihydropyrido[3,2-d]pyrimidine-6-carbonitrile] | 14 µM | – | – | – | – | – | – | – | –
4 | 20 µM | CCO[C@H]1CN(c2cc(=O)n(C)c3ccc(C#N)nc23)CC[C@@H]1Oc1ccc(OC(C)C)nn1 [Example 376, 8-((3S,4S)-3-ethoxy-4-((6-isopropoxypyridazin-3-yl)oxy)piperidin-1-yl)-5-methyl-6-oxo-5,6-dihydro-1,5-naphthyridine-2-carbonitrile] | 14 µM | – | – | – | – | – | – | – | –
5 | – | COc1cccc(OC2CCN(c3c(C#N)c(=O)n(C)c4ccc(Cl)nc34)CC2)c1 [Example 10, 6-chloro-4-(4-(3-methoxyphenoxy)piperidin-1-yl)-1-methyl-2-oxo-1,2-dihydro-1,5-naphthyridine-3-carbonitrile] | – | – | – | 150 nM | 2.8 µM | 140 nM | 4500 nM | 5 µM | –
6 | – | Cn1c(=O)c([N+](=O)[O-])c(N2CCC(Oc3ccc(OC(F)(F)F)cc3)CC2)c2cc(F)ccc21 [Example 3, 6-fluoro-1-methyl-3-nitro-4-(4-(4-(trifluoromethoxy)phenoxy)piperidin-1-yl)quinolin-2(1H)-one] | – | – | – | 110 nM | 240 µM | 490 nM | 1500 nM | 10 µM | –
7 | – | Cn1c(=O)c(C#N)c(N2CCC(Oc3ccccc3C(F)(F)F)CC2)c2nc(Cl)ccc21 [Example 11, 6-chloro-1-methyl-2-oxo-4-(4-(2-(trifluoromethyl)phenoxy)piperidin-1-yl)-1,2-dihydro-1,5-naphthyridine-3-carbonitrile] | – | – | – | 12000 nM | 150 µM | 10000 nM | 830 nM | 10 µM | –
8 | – | Cn1c(=O)c(C#N)c(N2CCC(Oc3ccc(F)c(F)c3)CC2)c2nc(Cl)ccc21 [Example 12, 6-chloro-4-(4-(3,4-difluorophenoxy)piperidin-1-yl)-1-methyl-2-oxo-1,2-dihydro-1,5-naphthyridine-3-carbonitrile] | – | – | – | 3200 nM | 27 µM | 2300 nM | 3800 nM | 5 µM | –
9 | – | Cn1c(=O)c([N+](=O)[O-])c(N2CCC(Oc3ccc(OC(F)(F)F)cc3)CC2)c2nc(C#N)ccc21 [Example 51, 5-methyl-7-nitro-6-oxo-8-(4-(4-(trifluoromethoxy)phenoxy)piperidin-1-yl)-5,6-dihydro-1,5-naphthyridine-2-carbonitrile] | – | – | – | 230 nM | 3 µM | 140 nM | 180 nM | 1.7 µM | 2500 nM
10 | – | COc1ccc(OC2CCN(c3c(C#N)c(=O)n(C)c4ccc(Cl)nc34)CC2)cc1 [Example 14, 6-chloro-4-(4-(4-methoxyphenoxy)piperidin-1-yl)-1-methyl-2-oxo-1,2-dihydro-1,5-naphthyridine-3-carbonitrile] | – | – | – | 250 nM | 13 µM | 280 nM | 830 nM | 7 µM | –
